# Experimental data taken from patent publication US9340590B2 (priority 2011, dated 2016).
# Where two headings read alike, the source gives them in different places. Positions of bridges follow the written chain, without caps; N, C: chain ends. Non-standard residues stand in square brackets, D forms with d. Residues, ends and D or L forms follow the SMILES beside them. *: point of attachment. Biotin = O=C1N[C@H]2[C@H](CS[C@H]2CCCCC(=O)*)N1; Phe(3,4-Cl2) = N[C@@H](Cc1ccc(Cl)c(Cl)c1)C(=O)O; Pent4ynoyl = C#CCCC(=O)*; Abu = CC[C@H](N)C(=O)O; Ahx = NCCCCCC(=O)O
# How the values were obtained:
# Assay in all cases: cell-based
# hNav1.7 [1] = target: T1, hNav1.7 (Homo sapiens, UniProt Q15858)
# hNav1.3 = hNav1.3 (Homo sapiens, UniProt Q9NY46); settings: IonWorks Quattro, read-out: IWQ Use Nav1.3
# hNav1.7 [2] = target: T1, hNav1.7; format: cell-based; settings: IonWorks Quattro, read-out: IWQ Use Nav1.7
# hNav1.5 = hNav1.5 (Homo sapiens, UniProt Q14524)
# [3] = IonWorks Quattro, use-dependent block, hNav1.5, read-out: IWQ Use Nav1.5
# Sequence of hNav1.3 (Q9NY46 whole entry, looked up): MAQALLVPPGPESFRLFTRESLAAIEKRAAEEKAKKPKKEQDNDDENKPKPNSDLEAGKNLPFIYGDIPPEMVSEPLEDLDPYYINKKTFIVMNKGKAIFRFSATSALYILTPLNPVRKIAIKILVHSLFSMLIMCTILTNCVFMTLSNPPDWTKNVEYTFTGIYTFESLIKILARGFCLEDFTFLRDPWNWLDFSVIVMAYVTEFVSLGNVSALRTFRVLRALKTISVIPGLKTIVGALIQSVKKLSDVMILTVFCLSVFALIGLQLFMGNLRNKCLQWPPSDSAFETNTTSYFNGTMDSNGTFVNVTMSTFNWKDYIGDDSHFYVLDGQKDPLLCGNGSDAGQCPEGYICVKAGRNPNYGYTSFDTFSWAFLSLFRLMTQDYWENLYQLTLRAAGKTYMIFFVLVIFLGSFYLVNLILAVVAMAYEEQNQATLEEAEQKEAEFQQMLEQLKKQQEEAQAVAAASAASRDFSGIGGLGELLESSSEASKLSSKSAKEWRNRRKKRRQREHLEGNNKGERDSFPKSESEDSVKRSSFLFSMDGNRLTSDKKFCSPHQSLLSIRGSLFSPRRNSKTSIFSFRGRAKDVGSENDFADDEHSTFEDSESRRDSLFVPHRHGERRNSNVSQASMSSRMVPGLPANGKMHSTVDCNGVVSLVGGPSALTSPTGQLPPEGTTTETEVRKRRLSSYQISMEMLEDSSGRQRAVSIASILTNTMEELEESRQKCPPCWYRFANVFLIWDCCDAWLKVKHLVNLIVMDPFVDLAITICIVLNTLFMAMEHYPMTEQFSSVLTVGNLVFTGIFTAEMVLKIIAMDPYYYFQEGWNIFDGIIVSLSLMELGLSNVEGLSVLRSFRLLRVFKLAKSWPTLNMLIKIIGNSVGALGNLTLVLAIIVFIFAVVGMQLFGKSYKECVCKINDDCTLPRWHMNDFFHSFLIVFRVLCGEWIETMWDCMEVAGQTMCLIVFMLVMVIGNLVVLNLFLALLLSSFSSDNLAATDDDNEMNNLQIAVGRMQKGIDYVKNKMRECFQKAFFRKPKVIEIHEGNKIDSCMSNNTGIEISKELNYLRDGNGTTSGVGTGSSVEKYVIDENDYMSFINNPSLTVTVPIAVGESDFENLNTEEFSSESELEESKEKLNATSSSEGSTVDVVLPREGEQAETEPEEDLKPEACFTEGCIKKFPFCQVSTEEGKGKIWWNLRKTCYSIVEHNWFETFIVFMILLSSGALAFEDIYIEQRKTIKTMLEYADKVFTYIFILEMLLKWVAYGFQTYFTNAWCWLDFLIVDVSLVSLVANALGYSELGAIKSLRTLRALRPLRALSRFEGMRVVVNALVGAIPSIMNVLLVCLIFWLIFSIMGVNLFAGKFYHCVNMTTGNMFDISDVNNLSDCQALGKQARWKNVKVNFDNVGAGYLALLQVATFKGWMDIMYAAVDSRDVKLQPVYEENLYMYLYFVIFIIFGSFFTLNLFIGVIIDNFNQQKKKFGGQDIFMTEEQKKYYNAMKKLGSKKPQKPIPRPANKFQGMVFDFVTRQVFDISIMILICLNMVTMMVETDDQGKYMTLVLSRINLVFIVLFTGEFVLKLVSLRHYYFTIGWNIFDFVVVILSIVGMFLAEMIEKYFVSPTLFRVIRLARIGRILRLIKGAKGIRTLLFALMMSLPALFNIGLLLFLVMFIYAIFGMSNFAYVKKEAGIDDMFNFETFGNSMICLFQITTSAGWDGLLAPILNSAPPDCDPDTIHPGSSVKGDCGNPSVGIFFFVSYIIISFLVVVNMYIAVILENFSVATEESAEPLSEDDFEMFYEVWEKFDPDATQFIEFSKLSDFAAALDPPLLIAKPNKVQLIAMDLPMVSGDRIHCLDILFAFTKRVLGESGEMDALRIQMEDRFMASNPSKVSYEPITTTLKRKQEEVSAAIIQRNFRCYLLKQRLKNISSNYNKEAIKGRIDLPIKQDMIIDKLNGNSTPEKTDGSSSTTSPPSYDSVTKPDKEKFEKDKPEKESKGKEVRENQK
# T1 sequence (Q15858 whole entry, looked up): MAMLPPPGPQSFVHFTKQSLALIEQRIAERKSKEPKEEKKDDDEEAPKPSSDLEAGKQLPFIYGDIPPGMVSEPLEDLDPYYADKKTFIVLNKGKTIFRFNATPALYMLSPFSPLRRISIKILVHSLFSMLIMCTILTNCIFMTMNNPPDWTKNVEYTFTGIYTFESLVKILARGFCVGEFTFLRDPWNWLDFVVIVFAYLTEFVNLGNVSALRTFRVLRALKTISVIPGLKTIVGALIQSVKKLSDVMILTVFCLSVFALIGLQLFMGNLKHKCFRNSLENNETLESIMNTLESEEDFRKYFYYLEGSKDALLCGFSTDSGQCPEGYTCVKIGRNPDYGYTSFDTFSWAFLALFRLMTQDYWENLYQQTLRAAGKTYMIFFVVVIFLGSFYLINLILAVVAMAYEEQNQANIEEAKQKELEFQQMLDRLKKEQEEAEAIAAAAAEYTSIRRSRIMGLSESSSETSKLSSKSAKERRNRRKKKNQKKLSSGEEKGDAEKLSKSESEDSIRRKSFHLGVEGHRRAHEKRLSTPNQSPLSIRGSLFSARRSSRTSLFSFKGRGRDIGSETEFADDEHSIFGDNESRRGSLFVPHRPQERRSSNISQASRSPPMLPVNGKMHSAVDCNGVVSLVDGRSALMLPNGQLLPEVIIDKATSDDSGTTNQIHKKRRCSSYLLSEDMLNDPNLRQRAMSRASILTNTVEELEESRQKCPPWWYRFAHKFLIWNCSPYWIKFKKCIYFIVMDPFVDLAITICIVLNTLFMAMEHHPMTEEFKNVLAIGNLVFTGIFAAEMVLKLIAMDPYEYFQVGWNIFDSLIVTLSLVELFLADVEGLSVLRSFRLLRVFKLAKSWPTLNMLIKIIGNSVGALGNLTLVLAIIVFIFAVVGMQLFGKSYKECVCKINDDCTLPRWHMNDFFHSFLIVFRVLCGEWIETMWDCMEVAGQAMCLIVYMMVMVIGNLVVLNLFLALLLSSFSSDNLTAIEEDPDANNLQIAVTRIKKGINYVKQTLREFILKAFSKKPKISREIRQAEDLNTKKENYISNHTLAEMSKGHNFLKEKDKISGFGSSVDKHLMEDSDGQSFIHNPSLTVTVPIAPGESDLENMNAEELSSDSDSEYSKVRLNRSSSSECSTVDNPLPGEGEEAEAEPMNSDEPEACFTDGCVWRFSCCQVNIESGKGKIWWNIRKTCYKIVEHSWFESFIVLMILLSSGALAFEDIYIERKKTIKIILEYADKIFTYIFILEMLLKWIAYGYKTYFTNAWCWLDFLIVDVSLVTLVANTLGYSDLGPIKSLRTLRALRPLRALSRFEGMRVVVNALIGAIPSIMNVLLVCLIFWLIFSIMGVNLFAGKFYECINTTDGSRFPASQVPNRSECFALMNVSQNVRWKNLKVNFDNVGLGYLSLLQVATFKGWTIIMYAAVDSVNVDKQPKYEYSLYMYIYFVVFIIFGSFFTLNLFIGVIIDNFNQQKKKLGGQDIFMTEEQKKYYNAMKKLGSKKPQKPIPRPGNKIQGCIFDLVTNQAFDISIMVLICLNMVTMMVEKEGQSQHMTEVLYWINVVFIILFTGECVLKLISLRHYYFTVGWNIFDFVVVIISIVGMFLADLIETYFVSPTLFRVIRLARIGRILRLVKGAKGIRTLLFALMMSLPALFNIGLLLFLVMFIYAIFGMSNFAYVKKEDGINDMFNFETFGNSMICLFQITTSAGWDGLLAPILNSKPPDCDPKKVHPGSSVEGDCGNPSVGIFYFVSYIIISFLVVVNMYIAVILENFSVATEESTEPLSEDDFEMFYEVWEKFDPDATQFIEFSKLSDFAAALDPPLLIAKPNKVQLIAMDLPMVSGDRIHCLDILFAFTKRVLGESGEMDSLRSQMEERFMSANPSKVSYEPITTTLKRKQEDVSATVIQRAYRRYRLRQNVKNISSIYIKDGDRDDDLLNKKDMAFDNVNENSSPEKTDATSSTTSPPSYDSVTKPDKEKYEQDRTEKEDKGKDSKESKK
SMILES,"IC50 (hNav1.3; use-dependent block, hNav1.3) [nM]","IC50 (hNav1.7 [2]; use-dependent block, hNav1.7) [nM]",IC50 (hNav1.5; [3]) [µM],other results
"CC[C@@H]1NC(=O)CNC(=O)[C@H](CC(C)C)NC(=O)[C@@H](NC(=O)[C@H](CC(=O)O)NC(=O)CCCCCNC(=O)CCCC[C@@H]2SC[C@@H]3NC(=O)N[C@@H]32)CSSC[C@@H]2NC(=O)[C@@H]3CSSC[C@@H](C(=O)N[C@@H](CCCCN)C(=O)N[C@@H](Cc4ccc(O)cc4)C(=O)N[C@H](C(=O)N[C@@H](Cc4ccccc4)C(N)=O)C(C)C)NC(=O)[C@H](Cc4c[nH]c5ccccc45)NC(=O)[C@H](CCCNC(=N)N)NC(=O)[C@H](Cc4c[nH]cn4)NC(=O)[C@H]([C@@H](C)O)NC(=O)[C@H](CCCNC(=N)N)NC(=O)[C@H](CO)NC(=O)[C@H](CSSC[C@H](NC(=O)[C@H](CCCCN)NC(=O)[C@H](CCCNC(=N)N)NC(=O)[C@H](CC(C)C)NC1=O)C(=O)N[C@@H]([C@@H](C)CC)C(=O)N1CCC[C@H]1C(=O)N[C@@H](CC(=O)O)C(=O)N[C@@H](CC)C(=O)N[C@@H](CC(=O)O)C(=O)N[C@@H](CCCCN)C(=O)N3)NC(=O)[C@H](C(C)C)NC(=O)[C@H](CC(C)C)NC(=O)[C@H](CC(N)=O)NC(=O)[C@@H]1CCCN1C(=O)[C@H](CCCNC(=N)N)NC2=O ({Biotin-Ahx}-DCLG[Abu]LRKCIPD[Abu]DKCCRPNLVCSRTHRWCKYVF-NH2; disulfide 2-17, 9-23, 16-30)",,,,Nav1.4/Nav1.7 Use (hNav1.7 [1]): 2482; Nav1.5/Nav1.7 Use (hNav1.7 [1]): >909
"CC[C@@H]1NC(=O)[C@H](CCCCN)NC(=O)[C@H](CCCNC(=N)N)NC(=O)[C@H](CCSC)NC(=O)[C@H](Cc2ccccc2)NC(=O)CNC(=O)[C@H](CC(C)C)NC(=O)[C@@H](NC(=O)[C@@H](N)CC(=O)O)CSSC[C@@H]2NC(=O)[C@H](CSSC[C@@H](C(=O)N[C@@H](CCCCN)C(=O)N[C@@H](Cc3ccc(O)cc3)C(=O)N[C@H](C(=O)N[C@@H](Cc3ccccc3)C(N)=O)C(C)C)NC(=O)[C@H](Cc3c[nH]c4ccccc34)NC(=O)[C@H](CCCCN)NC(=O)[C@H](Cc3c[nH]cn3)NC(=O)[C@H]([C@@H](C)O)NC(=O)[C@H](CCCNC(=N)N)NC(=O)[C@H](CO)NC(=O)[C@H](CC)NC(=O)[C@H](C(C)C)NC(=O)[C@H](CC(C)C)NC(=O)[C@H](CC(N)=O)NC(=O)[C@@H]3CCCN3C(=O)[C@H](CCCNC(=N)N)NC2=O)NC(=O)[C@H](CCCCN)NC(=O)[C@H](CC(=O)O)NC(=O)[C@H](CC(N)=O)NC(=O)[C@H](CC(=O)O)NC(=O)[C@@H]2CCCN2C(=O)[C@H]([C@@H](C)CC)NC1=O [compound 135] (H-DCLGFMRK[Abu]IPDNDKCCRPNLV[Abu]SRTHKWCKYVF-NH2; disulfide 2-17, 16-30)",12300,8140,9.21,
"C#CCCC(=O)N[C@@H](CC(=O)O)C(=O)N[C@H]1CSSC[C@@H]2NC(=O)[C@@H]3CSSC[C@@H](C(=O)N[C@@H](CCCCN)C(=O)N[C@@H](Cc4ccc(O)cc4)C(=O)N[C@H](C(=O)N[C@@H](Cc4ccccc4)C(N)=O)C(C)C)NC(=O)[C@H](Cc4c[nH]c5ccccc45)NC(=O)[C@H](CCCNC(=N)N)NC(=O)[C@H](Cc4c[nH]cn4)NC(=O)[C@H]([C@@H](C)O)NC(=O)[C@H](CCCNC(=N)N)NC(=O)[C@H](CO)NC(=O)[C@H](CSSC[C@H](NC(=O)[C@H](CCCCN)NC(=O)[C@H](CCCNC(=N)N)NC(=O)[C@H](Cc4ccccc4)NC(=O)[C@H](C)NC(=O)CNC(=O)[C@H](CC(C)C)NC1=O)C(=O)N[C@@H]([C@@H](C)CC)C(=O)N1CCC[C@H]1C(=O)N[C@@H](CC(=O)O)C(=O)N[C@@H](CC)C(=O)N[C@@H](CC(=O)O)C(=O)N[C@@H](CCCCN)C(=O)N3)NC(=O)[C@H](C(C)C)NC(=O)[C@H](CC(C)C)NC(=O)[C@H](CC(N)=O)NC(=O)[C@@H]1CCCN1C(=O)[C@H](CCCNC(=N)N)NC2=O [compound 756] (Pent4ynoyl-DCLGAFRKCIPD[Abu]DKCCRPNLVCSRTHRWCKYVF-NH2; disulfide 2-17, 9-23, 16-30)",260,180,44.4,
"CC[C@H](C)[C@@H]1NC(=O)[C@@H]2CSSC[C@@H]3NC(=O)[C@H](C(C)C)NC(=O)[C@H](CC(C)C)NC(=O)[C@H](CC(N)=O)NC(=O)[C@@H]4CCCN4C(=O)[C@H](CCCNC(=N)N)NC(=O)[C@H](CSSC[C@H](NC(=O)[C@@H](N)CC(=O)O)C(=O)N[C@@H](CC(C)C)C(=O)NCC(=O)N[C@@H](C)C(=O)N[C@@H](Cc4ccccc4)C(=O)N[C@@H](CCCNC(=N)N)C(=O)N[C@@H](CCCCN)C(=O)N2)NC(=O)[C@H](CSSC[C@@H](C(=O)N[C@@H](CCCCN)C(=O)N[C@@H](Cc2ccc(O)cc2)C(=O)N[C@H](C(=O)N[C@@H](Cc2ccccc2)C(=O)O)C(C)C)NC(=O)[C@H](Cc2c[nH]c4ccccc24)NC(=O)[C@H](CCCCN)NC(=O)[C@H](Cc2c[nH]cn2)NC(=O)[C@H]([C@@H](C)O)NC(=O)[C@H](CCCNC(=N)N)NC(=O)[C@H](CO)NC3=O)NC(=O)[C@H](CCCCN)NC(=O)[C@H](CC(=O)O)NC(=O)[C@H](CC(N)=O)NC(=O)[C@H](CC(=O)O)NC(=O)[C@@H]2CCCN2C1=O [compound 829] (H-DCLGAFRKCIPDNDKCCRPNLVCSRTHKWCKYVF-OH; disulfide 2-17, 9-23, 16-30)",2300,> 5000,> 5,
CSCC[C@@H]1NC(=O)[C@H](Cc2ccccc2)NC(=O)CNC(=O)[C@H](CC(C)C)NC(=O)[C@@H](NC(=O)[C@@H](N)CC(=O)O)CSSC[C@@H]2NC(=O)[C@@H]3CSSC[C@@H](C(=O)N[C@@H](CCCCN)C(=O)N[C@@H](Cc4ccc(O)cc4)C(=O)N[C@@H](Cc4cccc5ccccc45)C(=O)N[C@@H](Cc4ccccc4)C(N)=O)NC(=O)[C@H](Cc4c[nH]c5ccccc45)NC(=O)[C@H](CCCCN)NC(=O)[C@H](Cc4c[nH]cn4)NC(=O)[C@H]([C@@H](C)O)NC(=O)[C@H](CCCNC(=N)N)NC(=O)[C@H](CO)NC(=O)[C@H](CSSC[C@H](NC(=O)[C@H](CCCCN)NC(=O)[C@H](CCCNC(=N)N)NC1=O)C(=O)N[C@@H](Cc1cccc4ccccc14)C(=O)N1CCC[C@H]1C(=O)N[C@@H](CC(=O)O)C(=O)N[C@@H](CC(N)=O)C(=O)N[C@@H](CC(=O)O)C(=O)N[C@@H](CCCCN)C(=O)N3)NC(=O)[C@H](C(C)C)NC(=O)[C@H](CC(C)C)NC(=O)[C@H](CC(N)=O)NC(=O)[C@@H]1CCCN1C(=O)[C@H](CCCNC(=N)N)NC2=O [compound 462],70,110,> 5,
"CC[C@H](C)[C@@H]1NC(=O)[C@@H]2CSSC[C@@H]3NC(=O)[C@H](C(C)C)NC(=O)[C@H](CC(C)C)NC(=O)[C@H](CC(N)=O)NC(=O)[C@@H]4CCCN4C(=O)[C@H](CCCNC(=N)N)NC(=O)[C@H](CSSC[C@H](NC(=O)[C@@H](N)CC(=O)O)C(=O)N[C@@H](CC(C)C)C(=O)NCC(=O)N[C@@H](Cc4ccc(Cl)c(Cl)c4)C(=O)N[C@@H](Cc4ccccc4)C(=O)N[C@@H](CCCNC(=N)N)C(=O)N[C@@H](CCCCN)C(=O)N2)NC(=O)[C@H](CSSC[C@@H](C(=O)N[C@@H](CCCCN)C(=O)N[C@@H](Cc2ccc(O)cc2)C(=O)N[C@H](C(=O)N[C@@H](Cc2ccccc2)C(N)=O)C(C)C)NC(=O)[C@H](Cc2c[nH]c4ccccc24)NC(=O)[C@H](CCCCN)NC(=O)[C@H](Cc2c[nH]cn2)NC(=O)[C@H]([C@@H](C)O)NC(=O)[C@H](CCCNC(=N)N)NC(=O)[C@H](CO)NC3=O)NC(=O)[C@H](CCCCN)NC(=O)[C@H](CC(=O)O)NC(=O)[C@H](CC(N)=O)NC(=O)[C@H](CC(=O)O)NC(=O)[C@@H]2CCCN2C1=O [compound 621] (H-DCLG[Phe(3,4-Cl2)]FRKCIPDNDKCCRPNLVCSRTHKWCKYVF-NH2; disulfide 2-17, 9-23, 16-30)",,,,"IC50 (hNav1.3; use-dependent protocol, hNav1.3): 5 nM; IC50 (hNav1.7 [2]; use-dependent protocol, hNav1.7): 48 nM; IC50 (hNav1.5; IonWorks Quattro, use-dependent protocol, hNav1.5, read-out: IWQ Use Nav1.5): 4.1 µM"
"CC[C@H](C)[C@@H]1NC(=O)[C@@H]2CSSC[C@@H]3NC(=O)[C@H](C(C)C)NC(=O)[C@H](CC(C)C)NC(=O)[C@H](CC(N)=O)NC(=O)[C@@H]4CCCN4C(=O)[C@H](CCCNC(=N)N)NC(=O)[C@H](CSSC[C@H](NC(=O)[C@@H](N)CC(=O)O)C(=O)N[C@@H](CC(C)C)C(=O)NCC(=O)N[C@@H](Cc4ccccc4)C(=O)N[C@@H](CCSC)C(=O)N[C@@H](CCCNC(=N)N)C(=O)N[C@@H](CCCCN)C(=O)N2)NC(=O)[C@H](CSSC[C@@H](C(=O)N[C@@H](CCCCN)C(=O)N[C@@H](Cc2ccc(O)cc2)C(=O)N[C@@H](CC(C)C)C(=O)N[C@@H](Cc2ccccc2)C(N)=O)NC(=O)[C@H](Cc2c[nH]c4ccccc24)NC(=O)[C@H](CCCCN)NC(=O)[C@H](Cc2c[nH]cn2)NC(=O)[C@H]([C@@H](C)O)NC(=O)[C@H](CCCNC(=N)N)NC(=O)[C@H](CO)NC3=O)NC(=O)[C@H](CCCCN)NC(=O)[C@H](CC(=O)O)NC(=O)[C@H](CC(N)=O)NC(=O)[C@H](CC(=O)O)NC(=O)[C@@H]2CCCN2C1=O [compound 400] (H-DCLGFMRKCIPDNDKCCRPNLVCSRTHKWCKYLF-NH2; disulfide 2-17, 9-23, 16-30)",,,,"IC50 (hNav1.3; Table 26, use, […]): 70 nM; IC50 (hNav1.7 [2]; Table 26, use, […]): 130 nM; IC50 (hNav1.5; IWQ Use Nav1.5 (μM)): > 5 µM"
